What was measured:
[1] = target: T1, TASK-1 (Homo sapiens, UniProt O14649); test: whole-cell patch-clamp of TASK-1 currents in a 293T cell line; format: cell-based; conditions: n = 10
T1 construct: expressed in transfected cells
Description: (§1) For recordings of K^+ channel currents, we prepared stable cell lines for TREK-1, TWIK-related acid-sensitive K^+ channel (TASK-1), strongly inwardly rectifying K^+ channel (Kir2.1), and human ether-a-go-go-related gene (HERG-1) channels and transiently expressed other channels in 293T cells using a calcium-phosphate transfection method. For the establishment of the stable lines, we used lentiviral vectors, and the preparation methods for the lentiviral vectors were described in our previous report. TR-1 cells, which stably expressed TREK-1 channel and were grown on a small cover glass (3 × 18 mm), were placed in a recording chamber with an internal volume of 200 μl. Whole-cell currents were recorded in Tyrode solution using an Axopatch 200B amplifier (Axon Instruments, Foster City, CA) at 25°C. Tyrode solution contained (in mM): NaCl 140, KCl 5.4, NaH2PO4 0.33, CaCl2 2, MgCl2 1, HEPES 5, and glucose 5.5 (pH 7.4 adjusted with NaOH). […] Perfusion (100 μl/min) was continued to maintain the water level throughout recordings. pH and osmotic pressure of solutions were measured with a pH meter (Horiba, Kyoto, Japan) and a freezing point osmometer (Knauer, Berlin, Germany), respectively. […]

[2] = target: T2, TASK-3 (Homo sapiens, UniProt Q9NPC2); test: whole-cell patch-clamp of TASK-3 currents in 293T cells; format: cell-based
T2 construct: expressed in transfected cells; host or cells: 293T (transient, calcium-phosphate transfection)
T2 sequence (Q9NPC2 whole entry, species assumed): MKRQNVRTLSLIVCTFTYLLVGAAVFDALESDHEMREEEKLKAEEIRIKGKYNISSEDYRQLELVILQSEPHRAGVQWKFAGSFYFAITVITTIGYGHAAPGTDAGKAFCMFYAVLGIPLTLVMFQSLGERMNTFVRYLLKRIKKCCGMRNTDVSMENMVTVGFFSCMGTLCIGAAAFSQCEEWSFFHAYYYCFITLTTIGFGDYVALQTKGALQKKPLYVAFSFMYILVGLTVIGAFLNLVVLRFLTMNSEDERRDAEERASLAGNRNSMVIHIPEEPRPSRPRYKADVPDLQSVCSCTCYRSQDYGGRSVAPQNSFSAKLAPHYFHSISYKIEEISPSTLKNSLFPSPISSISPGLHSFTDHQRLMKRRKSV
Description: as §1

[3] = target: KCNQ-3 (Homo sapiens, UniProt O43525); test: whole-cell patch-clamp of KCNQ-3 currents in 293T cells; format: cell-based; conditions: 100 μM (data not shown)
Description: as §1

[4] = system: mice anxiety-like behavior; test: light/dark box test; format: in vivo; conditions: n = 8
Description: (§2) Male ICR mice (n = 317 in total) aged 5 weeks and weighing 32 ± 2 g were purchased from Shimizu Laboratory Supplies (Kyoto, Japan). For the social defeat stress test, we used 28 C57BL/6J mice (5 weeks old, Shimizu Laboratory Supplies) and 30 ICR mice (7–8 weeks old, Charles River Labs Japan, Yokohama, Kanagawa, Japan). Mice were maintained for at least 1 week prior to experiments. Animals were kept in groups in plastic cages. They had free access to food and water, and were kept in a 12-h light/dark cycle (08:00–20:00). Experiments were carried out between 10:00 and 18:00 in a quiet and air-conditioned experimental room, in which mice were habituated for at least 30 min before each experiment. Animal experiments were performed in accordance with the guidelines of the Physiological Society of Japan and were approved by the Committees on Animal Experiments at Kansai Medical University and the Kurashiki University of Science and the Arts. Ostruthin was initially dissolved in DMSO at higher concentration (100 mM) and then diluted in phosphate-buffered saline (PBS). The diluted solution was mixed vigorously for more than 10 min before the experiments, and an equal volume of DMSO was added to PBS as a control. PBS and ostruthin were administered intraperitoneally 30 min before mice behavioral tests (0.01 ml/g body weight). Each animal was used only once, except for the wheel running test, which was carried out immediately after elevated plus maze.
The light/dark box consisted of two compartments with a total exterior size of 46 × 27 × 30 cm. One-third of the box was used as a dark compartment, which was covered with a black wall and lid, and the rest of the area was used as a light compartment. These compartments were connected via a small opening (7 × 7 cm), enabling transition between the two compartments. We placed a mouse in the center of the light area and measured the time spent in the light area and the number of transitions between the light and dark compartments for 5 minutes.

[5] = system: depression-like behavior of mice; test: forced swim test; format: in vivo; conditions: 0, 2, 5, 20 mg/kg i.p. 30 min before test, dose-dependent, last 4 min of 6 min, n = 8
Description: as §2, with “PBS and ostruthin were administered intraperitoneally 30 min before mice behavioral tests (0.01 ml/g body weight). Each animal was used only once, except for the wheel running test, which was carried out immediately after elevated plus maze.” left out
The forced swim test was performed in accordance with a method reported previously. […] Mouse was allowed to swim for 6 min and the activity was measured. […]

[6] = system: general locomotor activity of mice; test: voluntary wheel running test; format: in vivo; conditions: 0, 2, 5, 20 mg/kg i.p., after elevated plus maze, 5 min, n = 7
Description: as §2, with “The diluted solution was mixed vigorously for more than 10 min before the experiments, and an equal volume of DMSO was added to PBS as a control. PBS and ostruthin were administered intraperitoneally 30 min before mice behavioral tests (0.01 ml/g body weight). Each animal was used only once, except for the wheel running test, which was carried out immediately after elevated plus maze.” left out
Immediately after the elevated plus maze test, the same mouse was subjected to the voluntary wheel running test. The number of rotations was measured for 5 min using an activity monitoring running wheel (Muromachi Kikai, Tokyo, Japan).

[7] = i.p. 30 min before test, vs 0 mg/kg

T1 sequence (O14649 whole entry, species assumed): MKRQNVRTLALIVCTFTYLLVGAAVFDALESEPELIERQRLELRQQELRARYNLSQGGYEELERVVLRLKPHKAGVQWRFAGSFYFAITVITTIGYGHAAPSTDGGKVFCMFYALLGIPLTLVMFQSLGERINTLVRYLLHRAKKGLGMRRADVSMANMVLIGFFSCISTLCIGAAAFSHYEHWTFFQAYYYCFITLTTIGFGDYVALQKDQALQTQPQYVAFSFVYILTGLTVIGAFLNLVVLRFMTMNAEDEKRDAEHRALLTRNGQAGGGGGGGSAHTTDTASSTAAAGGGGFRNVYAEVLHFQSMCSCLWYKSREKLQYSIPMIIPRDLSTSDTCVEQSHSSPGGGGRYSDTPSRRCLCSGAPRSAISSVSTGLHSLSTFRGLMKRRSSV

IC50 [1]: 41 µM
IC50 [2]: 227 µM
effect on KCNQ-3 channels [3]: no effect
SMILES: CC(C)=CCC/C(C)=C/Cc1cc2ccc(=O)oc2cc1O [ostruthin]
time spent in the light box ([4]; 20 mg/kg i.p., vs 5 mg/kg): decreased
number of transitions between the light and dark boxes ([4]; highest dose (20 mg/kg) i.p.): non-significantly decreased
number of transitions between the light and dark boxes [4, 7]: increased
time spent in the light box [4, 7]: significantly increased
time spent immobile [5]: decreased
number of wheel rotations (voluntary motility) [6]: no effect at any dose

Source: paper PMC6093650, “Antidepressive and anxiolytic effects of ostruthin, a TREK-1 channel activator” (PLoS ONE, 2018)
